In patent US4347254A, “Tricyclic cage compounds, their synthesis and use as antiviral agents” (Sumitomo Chemical Company, Limited, priority 1978, dated 1982):
Several values for one entry are separate records, joined by “and”; a condition that tells them apart may be missing. Equal entries are not always repeated. Where two headings read alike, the source gives them in different places.

Experiments:
[1] = system: catalepsy induced by haloperidol; experiment: Effects on the catalepsy induced by haloperidol (anti-catalepsy activity); type: in vivo, male dd-strain mice; details: for Number of showing anti-catalepty activity/Number of total animal: 0.5 hour after test drug, haloperidol 7 mg/kg s.c., hydrochloride
Protocol: Pharmcol., 22, 546-547 (1970)" or "J. May et al., Psychopharmcol., 24, 296-307 (1972)".
Effects on the catalepsy induced by haloperidol:
Six male dd-strain mice, weighing 25±3 g, were used in each group. Test drugs were injected intraperitoneally or subcutaneously 3.5 hours after the injection of haloperidol (7 mg/kg, s.c.).
The catalepsy was measured at 0.5 hour after injection of test drugs according to the method of Wirth et al. with slight modification [cf. Wirth, R., Gosswald, R., Horlein, V., Risse, K. H. and Kreiskott, H. Archs int. Pharmacodyn., Ther., 115, 1-31 (1958)].

[2] = Acute toxicity: mortality after subcutaneous injection; type: in vivo, male dd-strain mice; parameters: key to appearance of hyperactivity / clonic convulsion: ±: appearance of hyperactivity; +: appearance of clonic convulsion; details: mice
Protocol: Six male dd-strain mice, weighing 25±3 g, were used in each group. Test drugs were injected subcutaneously (0.2 ml/10 g).
Mortality at the 3rd day after subcutaneous injection:-
^(*1) Number of deaths/Number of animals used.

[3] = system: Influenza A/PR/8/34 (HO,Nl) strain; experiment: microbe, parasite or virus in culture; type: cell-based, Influenza A virus; details: for minimal effective concentration: Influenza A virus, PR/8, 72 h, 34° C., 3 days, read-out: MEC (minimum effective concentration); for Chemotherapeutic index (MCC/MEC): 4320 min
[4] = Cytotoxicity in host cells by microscopic examination and retardation of cell growth rate; type: cell-based; details: dog; MDCK cells; hydrochloride; read-out: MCC (minimum cytotoxic concentration)
Protocol: Virus (Influenza A/PR/8/34 (HO,Nl) strain) and cell culture (MDCK cells) were used in this study and were grown in Earle-based Eagle-MEM containing 2.5 mg/ml of NaHCO3 and 10% fetal calf serum. Maintenance medium was Eagle's MEM containing 2.5 mg/ml NaHCO3, 0.1% bovine serum albumin and 20 μg/ml Tnypsin.
After washing MDCK Cell monolayers with PBS(-), maintenance medium containing 10^3 TCID50 of virus the drug was added to each culture tube and these tubes were then incubated at 34° C. for 3 days.
Antiviral effects and cytotoxicities of the test compounds were tested against influenza virus by the tube dilution assay.
Cytotoxicity was determined by microscopic examination and retardation of cell growth rate of host cell, and represented by minimum cytotoxicic concentration (MCC, μg/ml).

[5] = system: Influenza A/PR/8/34 (HO,Nl) strain; type: in vivo, Influenza A virus; ICR male mice; details: for LLS (lung lesion score): score 0-5, control 4.7; for efficacy compared with amantadine: as indicated in Table III
[6] = system: central nervous system (CNS); details: known drug; cited from earlier work
[7] = 1000 mg/kg s.c., hydrochloride (29-1: not hydrochloride)
[8] = hydrochloride (29-1: not hydrochloride)

SMILES: NCC12CSC3CC(CC31)C2 (stereo not drawn) [Compound No. 49-1, 5-thia-3-aminomethyl-brendane]
- Number of showing anti-catalepty activity/Number of total animal ([1]; 125 mg/kg s.c.): 1/6
- Mortality rate at the 3rd day after subcutaneous injection (Number of deaths/Number of animals used) ([2]; 250 mg/kg s.c., hydrochloride): 0/6
- appearance of hyperactivity / clonic convulsion ([2]; 250 mg/kg s.c., hydrochloride): +
- minimal effective concentration ([3]; MDCK cells, hydrochloride): 25 µg/mL
- Chemotherapeutic index (MCC/MEC) ([3]; MDCK cells, hydrochloride): 2
- MCC at 72 h [4]: 50 µg/mL

SMILES: N[C@@H]1[C@H]2CC[C@H]3[C@@H]1CO[C@H]3C2 (relative stereo) [Compound No. 12-4, 5-Oxa-endo-2-amino-isotwistane]
- Number of showing anti-catalepty activity/Number of total animal ([1]; 500 mg/kg s.c.): 0/6
- Mortality rate at the 3rd day after subcutaneous injection (Number of deaths/Number of animals used) ([2]; 2000 mg/kg s.c., hydrochloride): 0/6
- appearance of hyperactivity / clonic convulsion ([2]; 2000 mg/kg s.c., hydrochloride): ±
- minimal effective concentration ([3]; MDCK cells, hydrochloride): 50 µg/mL
- Chemotherapeutic index (MCC/MEC) ([3]; MDCK cells, hydrochloride): 2
- MCC at 72 h [4]: 100 µg/mL

SMILES: NC[C@H]1[C@H]2CC[C@H]3[C@@H]1CO[C@H]3C2 (relative stereo) [Compound No. 67-1, exo-2-aminomethyl-5-oxa-isotwistane]
- minimal effective concentration ([3]; MDCK cells, hydrochloride): 25 µg/mL
- Chemotherapeutic index (MCC/MEC) ([3]; MDCK cells, hydrochloride): 4
- MCC at 72 h [4]: 100 µg/mL

SMILES: CNC12COC3CC(CCC31)C2 (stereo not drawn) [Compound No. 18-2, 5-Oxa-3-N-methylamino-isotwistane]
- Number of showing anti-catalepty activity/Number of total animal ([1]; 250 mg/kg s.c.): 3/6
- Mortality rate at the 3rd day after subcutaneous injection (Number of deaths/Number of animals used) ([2]; 500 mg/kg s.c., hydrochloride): 0/6
- appearance of hyperactivity / clonic convulsion ([2]; 500 mg/kg s.c., hydrochloride): ±
- minimal effective concentration ([3]; MDCK cells, hydrochloride): 50 µg/mL
- Chemotherapeutic index (MCC/MEC) ([3]; MDCK cells, hydrochloride): > 4
- MCC at 72 h [4]: > 200 µg/mL

SMILES: NCC1C2CCC3C(COC13)C2 (stereo not drawn) [Compound No. 12-10]
- minimal effective concentration ([3]; MDCK cells, hydrochloride): 25 µg/mL
- Chemotherapeutic index (MCC/MEC) ([3]; MDCK cells, hydrochloride): 4
- MCC at 72 h [4]: 100 µg/mL

SMILES: NC12CC3CC(CC(C3)C1)C2 [Amantadine, reference compound]
- Number of showing anti-catalepty activity/Number of total animal ([1]; 50 mg/kg s.c.): 3/6 and 2/6
- antagonism of the catalepsy (in words), amantadine ([1]; at 50 mg/kg): antagonizes the catalepsy at 50 mg/kg
- Mortality rate at the 3rd day after subcutaneous injection (Number of deaths/Number of animals used) ([2]; 300 mg/kg s.c., hydrochloride): 6/6
- LLS (lung lesion score) ([5]; hydrochloride): 4.3
- CNS-effects (in words), amantadine [6]: strong effects on a central nervous system (CNS)
- minimal effective concentration ([3]; MDCK cells, hydrochloride): 12.5 µg/mL
- Chemotherapeutic index (MCC/MEC) ([3]; mdck): 1
- MCC at 72 h [4]: 12.5 µg/mL

SMILES: CN(C)CC12COC3CC(CCC31)C2 (stereo not drawn) [Compound No. 41-5, 5-Oxa-3-N,N-dimethylaminomethyl-isotwistane]
- minimal effective concentration ([3]; MDCK cells, hydrochloride): 50 µg/mL
- Chemotherapeutic index (MCC/MEC) ([3]; MDCK cells, hydrochloride): 2
- MCC at 72 h [4]: 100 µg/mL

SMILES: COC(=O)C12COC3CC(CC31)C2 (stereo not drawn) [Compound No. 29-1, 5-oxa-3-methoxycarbonyl-brendane]
- Mortality rate at the 3rd day after subcutaneous injection (Number of deaths/Number of animals used) [2, 7]: 0/6
- LLS (lung lesion score) [5, 8]: 4.3
- efficacy compared with amantadine [5]: comparable to that of amantadine

SMILES: NCC12CSC3CC(CCC31)C2 (stereo not drawn) [Compound No. 53-1]
- Mortality rate at the 3rd day after subcutaneous injection (Number of deaths/Number of animals used) ([2]; 500 mg/kg s.c., hydrochloride): 3/6
- minimal effective concentration ([3]; MDCK cells, hydrochloride): 12.5 µg/mL
- Chemotherapeutic index (MCC/MEC) ([3]; MDCK cells, hydrochloride): 2
- MCC at 72 h [4]: 25 µg/mL

SMILES: NC1C2CCC3C(COC13)C2 (stereo not drawn) [Compound No. 44-4, 2-Amino-4-oxa-isotwistane]
- Number of showing anti-catalepty activity/Number of total animal ([1]; 500 mg/kg s.c.): 0/6
- Mortality rate at the 3rd day after subcutaneous injection (Number of deaths/Number of animals used) [2, 7]: 0/6
- minimal effective concentration ([3]; MDCK cells, hydrochloride): 100 µg/mL
- Chemotherapeutic index (MCC/MEC) ([3]; MDCK cells, hydrochloride): 1
- MCC at 72 h [4]: 100 µg/mL

SMILES: NCCCC12COC3CC(CCC31)C2 (stereo not drawn) [Compound No. 27-4, 5-Oxa-3-(ω-amino-n-propyl)-isotwistane]
- Mortality rate at the 3rd day after subcutaneous injection (Number of deaths/Number of animals used) ([2]; 250 mg/kg s.c., hydrochloride): 1/6
- Mortality rate at the 3rd day after subcutaneous injection (Number of deaths/Number of animals used) ([2]; 500 mg/kg s.c., hydrochloride): 6/6
- minimal effective concentration ([3]; MDCK cells, hydrochloride): 25 µg/mL
- Chemotherapeutic index (MCC/MEC) ([3]; MDCK cells, hydrochloride): 4
- MCC at 72 h [4]: 100 µg/mL

SMILES: N[C@H]1[C@H]2CC[C@H]3[C@@H]1CO[C@H]3C2 (relative stereo) [Compound No. 12-9, 5-Oxa-exo-2-amino-isotwistane]
- minimal effective concentration ([3]; MDCK cells, hydrochloride): 50 µg/mL
- Chemotherapeutic index (MCC/MEC) ([3]; MDCK cells, hydrochloride): 2
- MCC at 72 h [4]: 100 µg/mL

SMILES: CN[C@@H]1[C@H]2CC[C@H]3[C@@H]1CO[C@H]3C2 (relative stereo) [Compound No. 18-3, 5-Oxa-endo-2-N-methylamino-isotwistane]
- Number of showing anti-catalepty activity/Number of total animal ([1]; 500 mg/kg s.c.): 1/6
- appearance of hyperactivity / clonic convulsion ([2]; 1000 mg/kg s.c., hydrochloride): ±
- Mortality rate at the 3rd day after subcutaneous injection (Number of deaths/Number of animals used) [2, 7]: 0/6
- minimal effective concentration ([3]; MDCK cells, hydrochloride): 50 µg/mL
- Chemotherapeutic index (MCC/MEC) ([3]; MDCK cells, hydrochloride): > 4
- MCC at 72 h [4]: > 200 µg/mL

SMILES: NC12COC3CC(CCC31)C2 (stereo not drawn) [Compound No. 12-3, 5-Oxa-3-amino-isotwistane]
- Number of showing anti-catalepty activity/Number of total animal ([1]; 500 mg/kg s.c.): 2/6
- Mortality rate at the 3rd day after subcutaneous injection (Number of deaths/Number of animals used) ([2]; 705 mg/kg s.c., hydrochloride): 0/6
- appearance of hyperactivity / clonic convulsion ([2]; 705 mg/kg s.c., hydrochloride): ±
- LLS (lung lesion score) [5, 8]: 3.6
- efficacy compared with amantadine [5]: comparable to that of amantadine
- minimal effective concentration ([3]; MDCK cells, hydrochloride): 50 µg/mL
- Chemotherapeutic index (MCC/MEC) ([3]; MDCK cells, hydrochloride): 2
- MCC at 72 h [4]: 100 µg/mL

SMILES: NCC12COC3CC(CCC31)C2 (stereo not drawn) [Compound No. 27-2, 5-Oxa-3-aminomethyl-isotwistane]
- Number of showing anti-catalepty activity/Number of total animal ([1]; 500 mg/kg s.c.): 1/6
- Mortality rate at the 3rd day after subcutaneous injection (Number of deaths/Number of animals used) ([2]; 1190 mg/kg s.c., hydrochloride): 0/6
- appearance of hyperactivity / clonic convulsion ([2]; 1190 mg/kg s.c., hydrochloride): ±
- minimal effective concentration ([3]; MDCK cells, hydrochloride): 25 µg/mL
- Chemotherapeutic index (MCC/MEC) ([3]; MDCK cells, hydrochloride): 8
- times as safe as amantadine (by chemotherapeutic index) ([3]; compared with amantadine): 8 times
- MCC at 72 h [4]: 200 µg/mL

SMILES: NC[C@@H]1[C@H]2CC[C@H]3[C@@H]1CO[C@H]3C2 (relative stereo) [Compound No. 25-3, 5-Oxa-endo-2-aminomethyl-isotwistane]
- Number of showing anti-catalepty activity/Number of total animal ([1]; 500 mg/kg s.c.): 0/6
- Mortality rate at the 3rd day after subcutaneous injection (Number of deaths/Number of animals used) [2, 7]: 0/6
- minimal effective concentration ([3]; MDCK cells, hydrochloride): 25 µg/mL
- Chemotherapeutic index (MCC/MEC) ([3]; MDCK cells, hydrochloride): 4
- MCC at 72 h [4]: 100 µg/mL

SMILES: CC(N)C12COC3CC(CCC31)C2 (stereo not drawn) [Compound No. 44-1, 5-oxa-3-(α-aminoethyl)-isotwistane]
- Number of showing anti-catalepty activity/Number of total animal ([1]; 250 mg/kg s.c.): 1/6
- appearance of hyperactivity / clonic convulsion ([2]; 1000 mg/kg s.c., hydrochloride): ±
- Mortality rate at the 3rd day after subcutaneous injection (Number of deaths/Number of animals used) [2, 7]: 0/6
- minimal effective concentration ([3]; MDCK cells, hydrochloride): 25 µg/mL
- Chemotherapeutic index (MCC/MEC) ([3]; MDCK cells, hydrochloride): 2
- MCC at 72 h [4]: 50 µg/mL

SMILES: NC1C2CC3COC1C3C2 (stereo not drawn) [Compound No. 44-3, 2-Amino-4-oxa-brendane]
- minimal effective concentration ([3]; MDCK cells, hydrochloride): 50 µg/mL
- Chemotherapeutic index (MCC/MEC) ([3]; MDCK cells, hydrochloride): 2
- MCC at 72 h [4]: 100 µg/mL
